Results on 29 compounds are retold here after patent US9944647B2 (Incyte Corporation, priority 2015, dated 2018).

Usually pIC50 stands for −log10 of the IC50, conventionally taken in molar units. Higher therefore signals a small IC50.

pIC50: −log10 of the molar value.

The experiment addresses LSD-1 enzyme (Homo sapiens (Human), UniProt O60341). The experiment is described as follows: LANCE LSD1/KDM1A demethylase assay (LSD1 histone demethylase biochemical assay). Conditions: 1 nM LSD-1 enzyme, 1 hour preincubation at 25° C., Biotin-labeled Histone H3 peptide substrate. A general note: Time-resolved FRET reads energy transfer from a long-lived donor to a nearby acceptor.
For `CN1CCC[C@@H](COc2nc(-c3ccc(C#N)cc3)c(-c3cnc4c(c3)CCCN4C)c3nccn23)C1` [Example 78, 4-[5-{[(3R)-1-methylpiperidin-3-yl]methoxy}-8-(8-methyl-5,6,7,8-tetrahydro-1,8-naphthyridin-3-yl)imidazo[1,2-c]pyrimidin-7-yl]benzonitrile], the pIC50 is ≥ 7.30.

As to `Cc1ccc(-c2c(-c3ccc(C#N)cc3)nc(OC[C@@H]3CCCN(C)C3)n3ccnc23)cc1` [Example 1, 4-(8-(4-methylphenyl)-5-{[(3R)-1-methylpiperidin-3-yl]methoxy}imidazo[1,2-c]pyrimidin-7-yl)benzonitrile], the pIC50 was ≥ 7.30. `CN1CCC[C@@H](COc2nc(-c3ccc(C#N)cc3)c(-c3ccc(N(C)C)nc3)c3nccn23)C1` [Example 4, 4-(8-[6-(dimethylamino)pyridin-3-yl]-5-{[(3R)-1-methylpiperidin-3-yl]methoxy}imidazo[1,2-c]pyrimidin-7-yl)benzonitrile]: the pIC50 was ≥ 7.30.

Consider `CN1CCC[C@@H](COc2nc(-c3ccc(C#N)cc3)c(-c3ccc4c(c3)oc(=O)n4C)c3nccn23)C1` [Example 7, 4-(8-(3-methyl-2-oxo-2,3-dihydro-1,3-benzoxazol-6-yl)-5-{[(3R)-1-methylpiperidin-3-yl]methoxy}imidazo[1,2-c]pyrimidin-7-yl)benzonitrile], for which the pIC50 was ≥ 7.30. With `COc1ccc(-c2c(-c3ccc(C#N)cc3)nc(OC[C@@H]3CCCN(CCO)C3)n3ccnc23)cn1` [Example 56, 4-[5-{[(3R)-1-(2-hydroxyethyl)piperidin-3-yl]methoxy}-8-(6-methoxypyridin-3-yl)imidazo[1,2-c]pyrimidin-7-yl]benzonitrile], the pIC50 is ≥ 7.30. For `COc1ccc(-c2c(-c3ccc(C#N)cc3)nc(OC[C@@H]3CCCN(C)C3)n3ccnc23)cn1` [Example 3, 4-(8-(6-methoxypyridin-3-yl)-5-{[(3R)-1-methylpiperidin-3-yl]methoxy}imidazo[1,2-c]pyrimidin-7-yl)benzonitrile] the value was ≥ 7.30; for `CN1CCC[C@@H](COc2nc(-c3ccc(C#N)cc3)c(-c3ccc4c(c3)CC(O)C4)c3nccn23)C1` (stereo partly drawn) [Example 124, 4-(8-(2-hydroxy-2,3-dihydro-1H-inden-5-yl)-5-{[(3R)-1-methylpiperidin-3-yl]methoxy}imidazo[1,2-c]pyrimidin-7-yl)benzonitrile], ≥ 7.30.

With `Cc1ccc(-c2c(-c3ccc(C#N)cc3)nc(OC[C@@H]3CCCN(C)C3)n3ccnc23)cc1CO` [Example 71, 4-(8-[3-(hydroxymethyl)-4-methylphenyl]-5-{[(3R)-1-methylpiperidin-3-yl]methoxy}imidazo[1,2-c]pyrimidin-7-yl)benzonitrile], the negative logarithm of the IC50 (pIC50) was ≥ 7.30.

In the case of `CN1CCC[C@@H](COc2nc(-c3ccc(C#N)cc3)c(-c3cnc4c(cnn4C)c3)c3nccn23)C1` [Example 28, 4-[5-{[(3R)-1-methylpiperidin-3-yl]methoxy}-8-(1-methyl-1H-pyrazolo[3,4-b]pyridin-5-yl)imidazo [1,2-c]pyrimidin-7-yl]benzonitrile], the pIC50 is ≥ 7.30. For `CCN1CCC[C@@H](COc2nc(-c3ccc(C#N)cc3)c(-c3ccc(C)c(CO)c3)c3nccn23)C1` [Example 99, 4-{5-{[(3R)-1-ethylpiperidin-3-yl]methoxy}-8-[3-(hydroxymethyl)-4-methylphenyl]imidazo[1,2-c]pyrimidin-7-yl}benzonitrile] the value was ≥ 7.30; for `CN1CC[C@@H](COc2nc(-c3ccc(C#N)cc3)c(-c3ccc4c(c3)ncn4C)c3nccn23)C1` [Example 25, 4-(8-(1-methyl-1H-benzimidazol-5-yl)-5-{[(3R)-1-methylpyrrolidin-3-yl]methoxy}imidazo[1,2-c]pyrimidin-7-yl)benzonitrile], 6.30 to 7.30. Take `COCc1ccc(-c2c(-c3ccc(C#N)cc3)nc(OC[C@@H]3CCCN(C)C3)n3ccnc23)cc1` [Example 94, 4-(8-[4-(methoxymethyl)phenyl]-5-{[(3R)-1-methylpiperidin-3-yl]methoxy}imidazo[1,2-c]pyrimidin-7-yl)benzonitrile]: the pIC50 was ≥ 7.30. To `COc1ncc(-c2c(-c3ccc(C#N)cc3)nc(OC[C@@H]3CCCN(CCC#N)C3)n3ccnc23)cc1F` [Example 81, 4-[5-{[(3R)-1-(2-cyanoethyl)piperidin-3-yl]methoxy}-8-(5-fluoro-6-methoxypyridin-3-yl)imidazo[1,2-c]pyrimidin-7-yl]benzonitrile] belongs 6.30 to 7.30. For `CN1CCC[C@@H](COc2nc(-c3ccc(C#N)cc3)c(-c3ccc(CN4CC[C@H](C#N)C4)cc3)c3nccn23)C1` [Example 13, (3S)-1-[4-(7-(4-cyanophenyl)-5-{[(3R)-1-methylpiperidin-3-yl]methoxy}imidazo[1,2-c]pyrimidin-8-yl)benzyl]pyrrolidine-3-carbonitrile], the negative-log IC50 (pIC50) is ≥ 7.30. For `CN1CCN(C(=O)Cc2ccc(-c3c(-c4ccc(C#N)cc4)nc(OC[C@@H]4CCCN(C)C4)n4ccnc34)cc2)CC1` [Example 10, 4-(8-{4-[2-(4-methylpiperazin-1-yl)-2-oxoethyl]phenyl}-5-{[(3R)-1-methylpiperidin-3-yl]methoxy}imidazo[1,2-c]pyrimidin-7-yl)benzonitrile] the value was ≥ 7.30. With `CN1CCC[C@@H](COc2nc(-c3ccc(C#N)cc3)c(-c3cc(F)c(CO)c(F)c3)c3nccn23)C1` [Example 32, 4-(8-[3,5-difluoro-4-(hydroxymethyl)phenyl]-5-{[(3R)-1-methylpiperidin-3-yl]methoxy}imidazo[1,2-c]pyrimidin-7-yl)benzonitrile], the negative-log IC50 (pIC50) is ≥ 7.30. To `CN(C)C1CCN(c2nc(-c3ccc(C#N)cc3)c(-c3ccc(CN4CCOCC4)c(F)c3)c3nccn23)CC1` [Example 98, 4-{5-[4-(dimethylamino)piperidin-1-yl]-8-[3-fluoro-4-(morpholin-4-ylmethyl)phenyl]imidazo[1,2-c]pyrimidin-7-yl}benzonitrile] belongs ≥ 7.30; to `CN1CCC[C@@H](COc2nc(-c3ccc(C#N)cc3)c(-c3cc4oc(=O)n(C)c4cc3F)c3nccn23)C1` [Example 45, 4-(8-(5-fluoro-3-methyl-2-oxo-2,3-dihydro-1,3-benzoxazol-6-yl)-5-{[(3R)-1-methylpiperidin-3-yl]methoxy}imidazo[1,2-c]pyrimidin-7-yl)benzonitrile], ≥ 7.30; to `CN(C)C1CCN(c2nc(-c3ccc(C#N)cc3)c(-c3cc(F)c(CO)c(F)c3)c3nccn23)CC1` [Example 90, 4-{8-[3,5-difluoro-4-(hydroxymethyl)phenyl]-5-[4-(dimethylamino)piperidin-1-yl]imidazo[1,2-c]pyrimidin-7-yl}benzonitrile], ≥ 7.30.

On to `Cc1ccc(-c2c(-c3ccc(C#N)cc3)nc(OC[C@@H]3CCCN(C)C3)n3ccnc23)cc1C#N` [Example 96, 5-(7-(4-cyanophenyl)-5-{[(3R)-1-methylpiperidin-3-yl]methoxy}imidazo[1,2-c]pyrimidin-8-yl)-2-methylbenzonitrile], for which the pIC50 was ≥ 7.30. To `COC(=O)N(C)Cc1ccc(-c2c(-c3ccc(C#N)cc3)nc(OC[C@@H]3CCCN(C)C3)n3ccnc23)cc1` [Example 87, methyl [4-(7-(4-cyanophenyl)-5-{[(3R)-1-methylpiperidin-3-yl]methoxy}imidazo[1,2-c]pyrimidin-8-yl)benzyl]methylcarbamate] belongs ≥ 7.30. For `CN1CCC[C@@H](COc2nc(-c3ccc(C#N)cc3)c(-c3cnc4c(c3)OCCN4C)c3nccn23)C1` [Example 14, 4-(8-(4-methyl-3,4-dihydro-2H-pyrido[3,2-b][1,4]oxazin-7-yl)-5-{[(3R)-1-methylpiperidin-3-yl]methoxy}imidazo[1,2-c]pyrimidin-7-yl)benzonitrile] the value was ≥ 7.30. To `COc1ncc(-c2c(-c3ccc(C#N)cc3)nc(N3CCC(N(C)C)CC3)n3ccnc23)cc1Cl` [Example 104, 4-{8-(5-chloro-6-methoxypyridin-3-yl)-5-[4-(dimethylamino)piperidin-1-yl]imidazo[1,2-c]pyrimidin-7-yl}benzonitrile] belongs ≥ 7.30; to `CN1CCC[C@@H](COc2nc(-c3ccc(C#N)cc3)c(-c3ccc4c(c3)c(N)nn4C)c3nccn23)C1` [Example 42, 4-(8-(3-amino-1-methyl-1H-indazol-5-yl)-5-{[(3R)-1-methylpiperidin-3-yl]methoxy}imidazo[1,2-c]pyrimidin-7-yl)benzonitrile], ≥ 7.30; to `CN1CCC[C@@H](COc2nc(-c3ccc(C#N)cc3)c(-c3cnc4c(c3)CCN4C)c3nccn23)C1` [Example 77, 4-(8-(1-mcthyl-2.3-dihydro-1H-pyrrolo[2,3-b]pyridin-5-yl)-5-{[(3R)-1-methylpiperidin-3-yl]methoxy}imidazo[1,2-c]pyrimidin-7-yl)benzonitrile], ≥ 7.30. `Cc1ccc(-c2c(-c3ccc(C#N)cc3)nc(OC[C@@H]3CCN(C)C3)n3ccnc23)cc1` [Example 2, 4-(8-(4-methylphenyl)-5-{[(3R)-1-methylpyrrolidin-3-yl]methoxy}imidazo[1,2-c]pyrimidin-7-yl)benzonitrile] showed a pIC50 of 6.30 to 7.30. For `CN1CCC[C@@H](COc2nc(-c3ccc(C#N)cc3)c(-c3ccc(CN(C)C(=O)N(C)C)cc3)c3nccn23)C1` [Example 86, N-[4-(7-(4-cyanophenyl)-5-{[(3R)-1-methylpiperidin-3-y1]methoxy}imidazo[1,2-c]pyrimidin-8-yl)benzyl]-N,N′,N′-trimethylurea] the value was ≥ 7.30.

For `Cc1ccc(-c2c(-c3ccc(C#N)cc3)nc(OC[C@@H]3CCCN(C)C3)n3ccnc23)c(CO)c1` [Example 72, 4-(8-[2-(hydroxymethyl)-4-methylphenyl]-5-{[(3R)-1-methylpiperidin-3-yl]methoxy}imidazo[1,2-c]pyrimidin-7-yl)benzonitrile], the pIC50 is ≥ 7.30. On to `Cc1ccc(-c2c(-c3ccc(C#N)cc3)nc(N3CC[C@@H](N(C)C)C3)n3ccnc23)cc1CO` [Example 100, 4-{5-[(3R)-3-(dimethylamino)pyrrolidin-1-yl]-8-[3-(hydroxymethyl)-4-methylphenyl]imidazo[1,2-c]pyrimidin-7-yl}benzonitrile], for which the pIC50 was ≥ 7.30.
